Where two headings read alike, the source gives them in different places. *1 amine or outer side, *2 acyl side, *3 side chain or, on linkers, in order; H or OH if unused. Where a SMILES comes first, the peptide text is derived from it. Bridges are numbered along the chain shown (N, C = ends). [ ]: non-standard residue; d: D form. The star is where a group is joined. hPhe(3,5-F2-4-CF3) = N[C@@H](CCc1cc(F)c(C(F)(F)F)c(F)c1)C(=O)O; hPhe(3-Cl-4-CF3) = N[C@@H](CCc1ccc(C(F)(F)F)c(Cl)c1)C(=O)O; X27 = O=C([C@H](Cc1ccc(C(F)(F)F)cc1)N(CC1CC1)[*:1])[*:2]; NPrPhe(4-CF3) = CCCN[C@@H](Cc1ccc(C(F)(F)F)cc1)C(=O)O; X41 = Cc1ccc(C[C@@H](C(=O)[*:2])N(CC2CCCCC2)[*:1])cc1; X7 = CCN([C@H](C(=O)[*:2])C1CCCC1)[*:1]; NMeGly(cPent) = CN[C@H](C(=O)O)C1CCCC1; Pro(4,4-Me2) = CC1(C)CN[C@H](C(=O)O)C1; NMeD = CN[C@@H](CC(=O)O)C(=O)O; NMeL = CN[C@@H](CC(C)C)C(=O)O; αMeV = CC(C)[C@](C)(N)C(=O)O; αMeS = C[C@](N)(CO)C(=O)O; Morpholide = C1CN(*)CCO1; NMeA = CN[C@@H](C)C(=O)O; Ac5c = NC1(C(=O)O)CCCC1; Aze = O=C(O)[C@@H]1CCN1; NEtG = CCNCC(=O)O; Sar = CNCC(=O)O; tBu = CC(C)(C)*
What was measured:
[1] = target: GDP-bound HRAS wild-type protein (Homo sapiens, UniProt P01112); experiment: Binding to HRAS by surface plasmon resonance (SPR), Single Cycle Kinetics; conditions: SPR, GDP-bound HRAS wild-type protein vs GDP-bound KRAS wild-type protein
[2] = target: GDP-bound NRAS wild-type protein (Homo sapiens, UniProt P01111); experiment: Binding to NRAS by surface plasmon resonance (SPR), Single Cycle Kinetics; conditions: SPR, GDP-bound NRAS wild-type protein vs GDP-bound KRAS wild-type protein
[3] = target: GDP-bound KRAS wild-type protein (Homo sapiens, UniProt P01116); experiment: Binding to KRAS by surface plasmon resonance (SPR), Single Cycle Kinetics; conditions: GDP-bound KRAS wild-type protein, read-out: KRAS KD
[4] = SPR Single Cycle Kinetics, 1:1 binding model

Sequence of GDP-bound HRAS wild-type protein (P01112 whole entry): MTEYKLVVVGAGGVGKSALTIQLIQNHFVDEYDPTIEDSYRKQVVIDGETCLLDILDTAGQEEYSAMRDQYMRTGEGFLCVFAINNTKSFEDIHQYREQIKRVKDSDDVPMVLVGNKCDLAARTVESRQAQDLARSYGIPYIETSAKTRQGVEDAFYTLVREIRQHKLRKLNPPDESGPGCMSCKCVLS
Sequence of GDP-bound NRAS wild-type protein (P01111 whole entry): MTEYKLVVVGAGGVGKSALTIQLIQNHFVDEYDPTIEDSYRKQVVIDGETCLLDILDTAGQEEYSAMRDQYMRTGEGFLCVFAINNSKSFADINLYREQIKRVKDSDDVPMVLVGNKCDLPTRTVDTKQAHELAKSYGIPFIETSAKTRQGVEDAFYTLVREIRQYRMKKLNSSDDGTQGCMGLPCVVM
Sequence of GDP-bound KRAS wild-type protein (P01116 whole entry): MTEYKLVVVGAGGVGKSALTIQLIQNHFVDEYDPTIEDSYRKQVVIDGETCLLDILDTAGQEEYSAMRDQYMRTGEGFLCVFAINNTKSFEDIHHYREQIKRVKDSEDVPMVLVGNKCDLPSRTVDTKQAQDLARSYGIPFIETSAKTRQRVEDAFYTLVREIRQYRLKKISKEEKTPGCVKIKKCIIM

SMILES: CCO[C@@H]1C[C@H]2C(=O)NC3(CCC3)C(=O)N(C)[C@@H](C3CCCC3)C(=O)N(C)[C@H](C(=O)N3CCOCC3)CC(=O)N(C)[C@@H](Cc3ccccc3F)C(=O)N[C@@H]([C@@H](C)CC)C(=O)N(C)CC(=O)N(C)[C@H]3CCCCCN(C3=O)[C@@H](Cc3ccc(C(F)(F)F)cc3)C(=O)N(C)CC(=O)N[C@@H](CCc3cc(F)c(C(F)(F)F)c(F)c3)C(=O)N2C1 [PP0926]
- HRAS/KRAS (ratio of KD value for HRAS to KD value for KRAS) [1]: B (a compound having 3 or more and less than 10 is denoted as B)
- NRAS/KRAS (ratio of KD value for NRAS to KD value for KRAS) [2]: B (a compound having 3 or more and less than 10 is denoted as B)
- Kd ([3]; SPR, Single Cycle Kinetics): 2.4 nM

SMILES: CCCN1C(=O)[C@@H]2CCN2C(=O)CN(C)C(=O)[C@H]([C@@H](C)CC)NC(=O)[C@H](CC(C)C)N(C)C(=O)C[C@@H](C(=O)N2CCOCC2)N(C)C(=O)[C@H](C2CCCC2)N(C)C(=O)[C@](C)(C(C)C)NC(=O)[C@@H]2CCCN2C(=O)[C@H](CCc2cc(F)c(C(F)(F)F)c(F)c2)NC(=O)CN(C)C(=O)[C@@H]1Cc1ccc(C(F)(F)F)cc1 [PP0792] ([NMeL]I[Sar][Aze][NPrPhe(4-CF3)][Sar][hPhe(3,5-F2-4-CF3)]P[αMeV][NMeGly(cPent)][NMeD]-Morpholide; lactam N-11)
- HRAS/KRAS (ratio of KD value with respect to HRAS to KD value with respect to KRAS) [1]: B (a compound having 3 or more and less than 10 is denoted as B)
- NRAS/KRAS (ratio of KD value with respect to NRAS to KD value with respect to KRAS) [2]: C (A compound having a KD ratio of 0.1 or more and less than 3 is denoted as C)
- Kd [3, 4]: 0.9 nM

SMILES: CCCN1C(=O)CN(C)C(=O)CN(C)C(=O)[C@H]([C@@H](C)CC)NC(=O)[C@H](CC(C)C)N(C)C(=O)C[C@@H](C(=O)N(C)C)N(C)C(=O)[C@H](C2CCCC2)N(C)C(=O)[C@](C)(COC(C)(C)C)NC(=O)[C@@H]2CCCN2C(=O)[C@H](CCc2cc(F)c(C(F)(F)F)c(F)c2)NC(=O)CN(C)C(=O)[C@@H]1Cc1ccc(C(F)(F)F)cc1 [PP0743] ([NMeL]I[Sar][Sar][NPrPhe(4-CF3)][Sar][hPhe(3,5-F2-4-CF3)]P[αMeS](tBu)[NMeGly(cPent)][NMeD]-NMe2; lactam N-11)
- HRAS/KRAS (ratio of KD value with respect to HRAS to KD value with respect to KRAS) [1]: C (A compound having a KD ratio of 0.1 or more and less than 3 is denoted as C)
- NRAS/KRAS (ratio of KD value with respect to NRAS to KD value with respect to KRAS) [2]: B (a compound having 3 or more and less than 10 is denoted as B)
- Kd [3, 4]: 0.68 nM

SMILES: CCC[C@H]1C(=O)N[C@@H]([C@@H](C)CC)C(=O)N(C)CC(=O)N(C)[C@H]2C/C=C\CCN(C2=O)[C@@H](CC2CCC(F)(F)CC2)C(=O)N(C)CC(=O)N[C@@H](CCc2ccc(C(F)(F)F)c(OC)c2)C(=O)N2C[C@H](OCC)C[C@H]2C(=O)N(C)C2(CCC2)C(=O)N(C)[C@@H](C(CC)CC)C(=O)N(C)[C@H](C(=O)N(C)C)CC(=O)N1C [PP2345]
- HRAS/KRAS (ratio of KD value for HRAS to KD value for KRAS) [1]: A (a compound having 10 or more and less than 20 is denoted as A)
- NRAS/KRAS (ratio of KD value for NRAS to KD value for KRAS) [2]: A (a compound having 10 or more and less than 20 is denoted as A)
- Kd ([3]; SPR, Single Cycle Kinetics): 1.7 nM

SMILES: CCO[C@@H]1C[C@H]2C(=O)NC3(CCC3)C(=O)N(C)[C@@H](C3CCCC3)C(=O)N(CC)[C@H](C(=O)N3CCOCC3)CC(=O)N(C)[C@@H](CC(C)C)C(=O)N[C@@H]([C@@H](C)CC)C(=O)N(C)CC(=O)N(C)[C@H]3CCCCN(C3=O)[C@@H](Cc3ccc(C(F)(F)F)cc3)C(=O)N(C)CC(=O)N[C@@H](CCc3cc(F)c(C(F)(F)F)c(F)c3)C(=O)N2C1 [PP0648]
- HRAS/KRAS (ratio of KD value with respect to HRAS to KD value with respect to KRAS) [1]: B (a compound having 3 or more and less than 10 is denoted as B)
- NRAS/KRAS (ratio of KD value with respect to NRAS to KD value with respect to KRAS) [2]: B (a compound having 3 or more and less than 10 is denoted as B)
- Kd [3, 4]: 0.21 nM

SMILES: CC[C@H](C)[C@@H]1NC(=O)[C@H](CC(C)C)N(C)C(=O)C[C@@H](C(=O)N2CCOCC2)N(C)C(=O)[C@H](C2CCCC2)N(C)C(=O)C2(CCCC2)NC(=O)[C@@H]2CCCN2C(=O)[C@H](CCc2ccc(C(F)(F)F)c(Cl)c2)NC(=O)CN(C)C(=O)[C@H](Cc2ccc(C)cc2)N(CC2CCCCC2)C(=O)[C@@H]2CCN2C(=O)[C@H](C)N(C)C1=O [PP0085] ([NMeL]I[NMeA][Aze][X41][Sar][hPhe(3-Cl-4-CF3)]P[Ac5c][NMeGly(cPent)][NMeD]-Morpholide; lactam N-11)
- HRAS/KRAS (ratio of KD value for HRAS to KD value for KRAS) [1]: C (A compound having a KD ratio of 0.1 or more and less than 3 is denoted as C)
- NRAS/KRAS (ratio of KD value for NRAS to KD value for KRAS) [2]: C (A compound having a KD ratio of 0.1 or more and less than 3 is denoted as C)
- Kd [3, 4]: 8.4 nM

SMILES: CCCN1C(=O)CN(C)C(=O)CN(CC)C(=O)[C@H]([C@@H](C)CC)NC(=O)[C@H](CC(C)C)N(C)C(=O)C[C@@H](C(=O)N2CCOCC2)N(C)C(=O)[C@H](C2CCCC2)N(C)C(=O)C2(CCCC2)NC(=O)[C@@H]2CC(C)(C)CN2C(=O)[C@H](CCc2ccc(C(F)(F)F)c(Cl)c2)NC(=O)CN(C)C(=O)[C@@H]1Cc1ccc(C(F)(F)F)cc1 [PP0450] ([NMeL]I[NEtG][Sar][NPrPhe(4-CF3)][Sar][hPhe(3-Cl-4-CF3)][Pro(4,4-Me2)][Ac5c][NMeGly(cPent)][NMeD]-Morpholide; lactam N-11)
- HRAS/KRAS (ratio of KD value with respect to HRAS to KD value with respect to KRAS) [1]: C (A compound having a KD ratio of 0.1 or more and less than 3 is denoted as C)
- NRAS/KRAS (ratio of KD value with respect to NRAS to KD value with respect to KRAS) [2]: B (a compound having 3 or more and less than 10 is denoted as B)
- Kd [3, 4]: 0.38 nM

SMILES: CC[C@H](C)[C@@H]1NC(=O)[C@H](CC(C)C)N(C)C(=O)C[C@@H](C(=O)N2CCOCC2)N(C)C(=O)[C@H](C2CCCC2)N(C)C(=O)C2(CCCC2)NC(=O)[C@@H]2CCCN2C(=O)[C@H](CCc2ccc(C(F)(F)F)c(Cl)c2)NC(=O)CN(C)C(=O)[C@H](Cc2ccc(C(F)(F)F)cc2)N(CC2CC2)C(=O)CN(C)C(=O)CN(C)C1=O [PP0122] ([NMeL]I[Sar][Sar][X27][Sar][hPhe(3-Cl-4-CF3)]P[Ac5c][NMeGly(cPent)][NMeD]-Morpholide; lactam N-11)
- HRAS/KRAS (ratio of KD value for HRAS to KD value for KRAS) [1]: C (A compound having a KD ratio of 0.1 or more and less than 3 is denoted as C)
- NRAS/KRAS (ratio of KD value for NRAS to KD value for KRAS) [2]: C (A compound having a KD ratio of 0.1 or more and less than 3 is denoted as C)
- Kd [3, 4]: 0.32 nM

SMILES: CC[C@H](C)[C@@H]1NC(=O)[C@H](CC(C)C)N(C)C(=O)C[C@@H](C(=O)N2CCOCC2)N(C)C(=O)[C@H](C2CCCC2)N(C)C(=O)C2(CCCC2)NC(=O)[C@@H]2CCCN2C(=O)[C@H](CCc2ccc(C(F)(F)F)c(Cl)c2)NC(=O)CN(C)C(=O)[C@H](C2CCCC2)N(CC)C(=O)CN(C)C(=O)CN(C)C1=O [PP0024] ([NMeL]I[Sar][Sar][X7][Sar][hPhe(3-Cl-4-CF3)]P[Ac5c][NMeGly(cPent)][NMeD]-Morpholide; lactam N-11)
- HRAS/KRAS (ratio of KD value for HRAS to KD value for KRAS) [1]: C (A compound having a KD ratio of 0.1 or more and less than 3 is denoted as C)
- NRAS/KRAS (ratio of KD value for NRAS to KD value for KRAS) [2]: B (a compound having 3 or more and less than 10 is denoted as B)
- Kd [3, 4]: 5.9 nM

From patent US20240158446A1, “CYCLIC COMPOUND HAVING SELECTIVE INHIBITORY ACTION ON KRAS OVER HRAS AND NRAS” (CHUGAI SEIYAKU KABUSHIKI KAISHA, priority 2021, published 2024)
